{"source": "patent US10130598B2", "about": "“Methods and compositions for administration of 3-halopyruvate and related compounds for the treatment of cancer” (The Johns Hopkins University, priority 2008, dated 2018)", "assay_type_in_all_cases": "cell-based", "key": {"MDA MB 231 cells": {"system": "MDA MB 231 cells", "experiment": "Luminescence ATP assay, MDA MB 231", "experimental": "Cytotoxicity of 3-BrPA was evaluated by the IC50 values, representing the drug concentration which depletes ATP by 50% compared to non-treated control. On day 1, cells were seeded into 96-well plates in a volume of 100 μl per well. On day 2, the medium of all wells was removed and an aliquot of 100 μl of media having serial dilutions of 3-BrPA in PBS, NaHCO3, NaOH, KOH and KHCO3 was added to the appropriate well. After 24 h of drug exposure cytotoxic effects of 3-BrPA were monitored by cellular ATP level using CellTiter-Glo™ assay reagents from Promega Corp (Madison, Wis.). Briefly, 100 μl assay reagent was added to each well and mixed at room temperature for 2 min to develop luminescent signal. The luminescence intensity (cps) from each sample was determined with a spectrometer (Model Victor III, Perkin Elmer, Mass.). Relative luminescence was calculated in proportion to the numbers of living cells per sample well. The results are expressed as the mean of three independent experiments. The intracellular ATP contents were calculated and normalized by equal cell number and expressed as the percentage of the control cells. The IC50 values were estimated graphically from dose-response plots.\nThe anti-metabolic effect of 3-BrPA on MCF7 and MDA MB231 cells was examined using luminescence ATP assays, as described above. […]"}, "[1]": {"system": "Hep3B, HepG2, SK-Hep1 and VX2 cells", "experiment": "Annexin V apoptosis assay (flow cytometry and fluorescent microscopy)", "experimental": "The apoptosis of 3-BrPA treated cells was evaluated using Annexin V staining and the formation of active caspase-3. Cells treated with 3-BrPA were stained with anti-Annexin V and analyzed by flow cytometry as well as fluorescent microscopy. Flow cytometry was performed using a Becton-Dickinson FACSCalibur. The gating was done based on unstained control cells, Annexin V—PE stained and 7-AAD stained control cells. For fluorescent microscopy, Annexin V staining was performed using Annexin V staining Microscopy kit (BD Biosciences, USA) according to the protocol recommended by the manufacturer. In brief, cells grown in chambered slides were treated with either 3BrPA or the vehicle, washed once with ice-cold PBS followed by two washes with binding buffer, at the end of the treatment period. Cells were then incubated with the FITC-conjugated Annexin V fluorescent antibody for 15 min followed by a gentle wash. The cells were kept in binding buffer and images were observed captured using a Zeiss Axiovert 200 Microscope (Carl Zeiss Microimaging Inc., USA). Active caspase-3, an apoptotic marker, was identified by western blot analysis. Lysates prepared from equal numbers of cells treated with different concentrations of 3BrPA were subjected to SDS-PAGE electrophoresis and immunoblotting against active (cleaved) caspase-3.\nIn order to confirm that the cytotoxic effects of 3BrPA involves cellular apoptotic pathways, Annexin V levels and Caspase-3 activation was examined in cells treated with 3-BrPA. […] Additionally, immunoblotting of cell lysates with activated-Caspase-3 specific antibodies confirmed the activation of caspase-3 during 3BrPA mediated cell death (FIG. 8)."}, "Hep3B cells": {"system": "Hep3B cells", "experiment": "ATP dependent luminescence cell viability assay, Hep3B", "text": "The non-small cell lung cancer (NSCLC) cell line NCI-H1299, the breast cancer cell lines MCF7 and MDA MB 231 and the Hep3B, Hep2G and SK-Hep1 cells were obtained from the American Type Culture Collection (ATCC) (Manassas, Va., USA) and maintained as a monolayer culture in Eagle's minimum essential medium (MEM, Invitrogen, Gaithersburg, Md., USA) supplemented with 10% fetal bovine serum at 37 C and 5% CO2. All treatments were done in triplicate samples on 96-well plates. VX2 cells were maintained as described in Geschwind et al., Cancer Res., 62:3909-3913 (2002).\nCytotoxicity of 3-BrPA was evaluated by the IC50 values, representing the drug concentration which depletes ATP by 50% compared to non-treated control. On day 1, cells were seeded into 96-well plates in a volume of 100 μl per well. On day 2, the medium of all wells was removed and an aliquot of 100 μl of media having serial dilutions of 3-BrPA in PBS, NaHCO3, NaOH, KOH and KHCO3 was added to the appropriate well. […] Briefly, 100 μl assay reagent was added to each well and mixed at room temperature for 2 min to develop luminescent signal. The luminescence intensity (cps) from each sample was determined with a spectrometer (Model Victor III, Perkin Elmer, Mass.). […]\nThe effects on cell viability and cellular metabolism of 3-BrPA on Hep3B and VX2 cells were examined using luminescence ATP assays, as described above. […]"}}}
{"smiles": "O=C(O)C(=O)CBr", "note": "[3-BrPA, 3-bromopyruvate]", "values": [{"measurement": "ATP level (bioluminescent quantification)", "setting": "MDA MB 231 cells", "result": "dose and time dependent energy (ATP) depletion"}, {"measurement": "Annexin V positive cells (flow cytometry)", "setting": "[1]; Annexin V-PE and 7-AAD staining, 100 and 200 μM", "result": "dose dependent increase"}, {"measurement": "Number of apoptotic cells compared with control", "setting": "[1]; all cell lines, after 2 hours of treatment, 200 μM", "result": "significant increase"}, {"measurement": "Annexin V staining (photomicrographs)", "setting": "[1]; treated vs control", "result": "elevated levels of Annexin V"}, {"measurement": "Level of ATP", "setting": "Hep3B cells; 3, 24, 48 hours", "result": "dose and time dependent decrease"}, {"measurement": "IC50", "setting": "Hep3B cells; at 48 hours, read-out: IC50 (ATP depletion)", "result": 125, "unit": "µM"}]}
